{
  "source": "patent US5591741A",
  "about": "“Fungicidal spiroheterocyclic derivatives” (American Cyanamid Company, priority 1993, dated 1997)",
  "conditions_in_all_cases": "Table VIa; host plants sprayed; solution of 400 ppm and dilutions",
  "key": {"[1]": {"tested_on": "Venturis inaequalis", "experiment": "In vivo fungicidal activity, Apple Scab (AS)"}, "[2]": {"tested_on": "Erysiphe graminis f. sp. tritici", "experiment": "In vivo fungicidal activity, Wheat Powdery Mildew (WPM)"}, "[3]": {"tested_on": "Alternaria solani", "experiment": "In vivo fungicidal activity, Tomato Early Blight (TEB); note: ranges in brackets are in %"}, "[4]": {"tested_on": "Botrytis cinerea", "experiment": "In vivo fungicidal activity, Pepper Botrytis (PB); note: ranges in brackets are in %"}, "[5]": {"tested_on": "Pyricularia oryzae", "assay_type": "in vivo"}, "[6]": {"tested_on": "Septoria nodorum", "experiment": "In vivo fungicidal activity, Wheat Blotch (WSN)", "protocol": "Test compounds are dissolved in acetone and diluted with deionized water containing about 0.05% TWEEN 20®, a polyoxyethylene sorbitan monolaurate surfactant manufactured by Atlas Chemical Industries, to give a concentration of 400 ppm. Subsequent dilutions are made with an 0.05% aqueous solution of TWEEN 20®.\nHost plants are sprayed with test solution, dried and inoculated with fungi. When disease symptom development is optimal, the plants are rated for disease control according to the rating scale shown below. Each test contains inoculated treated plants, inoculated untreated plants and a reference standard. When more than one test is run, the data are averaged."}, "[7]": {"tested_on": "Plasmopara viticola", "experiment": "In vivo fungicidal activity, Grape Downy Mildew (GDM); note: ranges in brackets are in %"}, "[8]": {"tested_on": "Cercospora beticola", "experiment": "In vivo fungicidal activity, Sugar Beet Cercospora (SBC); note: ranges in brackets are in %"}},
  "data": [
    {"smiles": "CCCCCC(C)N(CC)CCC1COC2(CCC(C(C)(C)C)CC2)C1", "note": "(stereo not shown) [Compound 202]", "values": [
      {"measurement": "disease control rating AS (Apple Scab)", "setting": "[1]", "value": "6 (75-89)"},
      {"measurement": "disease control rating WPM", "setting": "[2]", "value": "8 (96-99)"},
      {"measurement": "disease control rating TEB", "setting": "[3]", "value": "0 (0)"},
      {"measurement": "disease control rating PB", "setting": "[4]", "value": "7 (90-95)"},
      {"measurement": "disease control rating RB", "setting": "[5]", "value": "0 (0)"},
      {"measurement": "disease control rating WSN", "setting": "[6]", "value": "5 (60-74)"},
      {"measurement": "disease control rating GDM", "setting": "[7]", "value": "5 (60-74)"},
      {"measurement": "disease control rating SBC", "setting": "[8]", "value": "7 (90-95)"}
    ]},
    {"smiles": "CCCCCC(C)NCCC1COC2(CCC(C(C)(C)C)CC2)C1", "note": "(stereo not shown) [Compound 194]", "values": [
      {"measurement": "disease control rating AS (Apple Scab)", "setting": "[1]", "value": "6 (75-89)"},
      {"measurement": "disease control rating WPM", "setting": "[2]", "value": "7 (90-95)"},
      {"measurement": "disease control rating TEB", "setting": "[3]", "value": "3 (30-44)"},
      {"measurement": "disease control rating PB", "setting": "[4]", "value": "4 (45-59)"},
      {"measurement": "disease control rating RB", "setting": "[5]", "value": "0 (0)"},
      {"measurement": "disease control rating WSN", "setting": "[6]", "value": "7 (90-95)"},
      {"measurement": "disease control rating GDM", "setting": "[7]", "value": "7 (90-95)"},
      {"measurement": "disease control rating SBC", "setting": "[8]", "value": "8 (96-99)"}
    ]},
    {"smiles": "CC(C)(C)C1CCC2(CC1)CC(CCNC1CCC3CCCCC3C1)CO2", "note": "(stereo not shown) [Compound 198]", "values": [
      {"measurement": "disease control rating AS (Apple Scab)", "setting": "[1]", "value": "6 (75-89)"},
      {"measurement": "disease control rating WPM", "setting": "[2]", "value": "8 (96-99)"},
      {"measurement": "disease control rating TEB", "setting": "[3]", "value": "6 (75-89)"},
      {"measurement": "disease control rating PB", "setting": "[4]", "value": "7 (90-95)"},
      {"measurement": "disease control rating RB", "setting": "[5]", "value": "0 (0)"},
      {"measurement": "disease control rating WSN", "setting": "[6]", "value": "8 (96-99)"},
      {"measurement": "disease control rating GDM", "setting": "[7]", "value": "6 (75-89)"},
      {"measurement": "disease control rating SBC", "setting": "[8]", "value": "8 (96-99)"}
    ]},
    {"smiles": "CCCCC(CC)NCCC1COC2(CCC(C(C)(C)C)CC2)C1", "note": "(stereo not shown) [Compound 197]", "values": [
      {"measurement": "disease control rating AS (Apple Scab)", "setting": "[1]", "value": "5 (60-74)"},
      {"measurement": "disease control rating WPM", "setting": "[2]", "value": "8 (96-99)"},
      {"measurement": "disease control rating TEB", "setting": "[3]", "value": "0 (0)"},
      {"measurement": "disease control rating PB", "setting": "[4]", "value": "8 (96-99)"},
      {"measurement": "disease control rating RB", "setting": "[5]", "value": "0 (0)"},
      {"measurement": "disease control rating WSN", "setting": "[6]", "value": "7 (90-95)"},
      {"measurement": "disease control rating GDM", "setting": "[7]", "value": "7 (90-95)"},
      {"measurement": "disease control rating SBC", "setting": "[8]", "value": "7 (90-95)"}
    ]},
    {"smiles": "CC1CCCC(NCCC2COC3(CCC(C(C)(C)C)CC3)C2)C1", "note": "(stereo not shown) [Compound 192]", "values": [
      {"measurement": "disease control rating AS (Apple Scab)", "setting": "[1]", "value": "7 (90-95)"},
      {"measurement": "disease control rating WPM", "setting": "[2]", "value": "7 (90-95)"},
      {"measurement": "disease control rating TEB", "setting": "[3]", "value": "4 (45-59)"},
      {"measurement": "disease control rating PB", "setting": "[4]", "value": "8 (96-99)"},
      {"measurement": "disease control rating RB", "setting": "[5]", "value": "0 (0)"},
      {"measurement": "disease control rating WSN", "setting": "[6]", "value": "7 (90-95)"},
      {"measurement": "disease control rating GDM", "setting": "[7]", "value": "6 (75-89)"},
      {"measurement": "disease control rating SBC", "setting": "[8]", "value": "7 (90-95)"}
    ]}
  ]
}
